# Tests used:
# [1] = test system: 3T3-L1 adipocytes; experiment: Glucose uptake assay in 3T3-L1 adipocytes; format: cell-based
# Experimental: Chemical synthesis yields both the α- and β-anomers of PGG. (B) Glucose transport stimulatory activity (13, 14) of PGG was assessed by incubating adipocytes in 6-well plates with insulin or PGG for 15 min followed by the addition of [^3H]-2-deoxy-D-glucose for 10 min before quantifying uptake (13, n=3, mean±SD, Two way-ANOVA, * P<0.05; ** P<0.01). α-PGG (●); β-PGG (□); insulin (∘). (C) Glucose transport induced by insulin in the presence of α-PGG. One […] of insulin was added to adipocytes in the presence of increasing amounts of α-PGG. After induction, radioactive glucose was added, and the glucose taken up by the cells was counted.
# Reagents, compound synthesis, and glucose uptake assay. Bovine insulin was purchased from Sigma. PGG, in an approximate 1:1 mixture of α- and β-PGG, was synthesized from glucose in the non-radioactive form as described (22). The identity of the compounds was confirmed by MS and NMR. The compounds were dissolved in double distilled water (ddH2O), filter sterilized, and stored as a 10 mM aqueous stock solution at −20° C. The stock solutions were diluted to final concentrations with sterile ddH2O. Glucose uptake assays in 3T3-L1 adipocytes induced by PGG were performed as described (13).
# [2] = test system: db/db mice; experiment: Blood glucose in fasting db/db mice, oral dose; format: in vivo
# Experimental: Either 6-8 week old male db/db mice or 8-12 week old male ob/ob mice were treated with aqueous solutions of α-PGG by either oral delivery (˜10 μL, A & B) or ip injection (˜50 μL, C, & D). (n=8-10, mean±SD, one-way ANOVA). α-PGG (●); vehicle (∘). α-PGG (20 mg/kg) was orally delivered without glucose to fasting db/db mice (A *, P<0.02; **, P<0.01; ***, P<0.001) or with glucose (0.4 g/kg body weight) to fasting ob/ob mice (B, glucose tolerance test). α-PGG (20 mg/kg) was ip injected into ob/ob mice on day 0 and day 4 (C). A single ip injection (20 mg/kg) of α-PGG was administered to ob/ob mice (D). Glucose (A, B, C) or insulin (D) was determined from sera or plasma isolated from tail vein blood. Animal studies. Genetically diabetic db/db mice or obese ob/ob mice were purchased from Jackson Lab. Male mice of 2-3 months of age were used. Unless otherwise stated, 10 mice (N=10) were used per group. α-PGG was either orally administered or intraperitoneally (ip) injected in the form of an aqueous solution at 20 mg/kg body weight with a 1-cc sterile plastic syringe. At different times after the α-PGG administration, blood or plasma was collected from the tail vein for measurement of glucose and insulin concentrations using commercial kits. Vehicle (aqueous solution) treated mice were used as controls and were statistically compared with the α-PGG treated mice. All animal studies were conducted in accord with the Ohio University guidelines for the use and care of laboratory animals.
# [3] = test system: IR; experiment: IR phosphorylation, Western blot; format: cell-based, Chinese hamster; settings: CHO-IR cells, 20 or 40 μM, 15 min
# Experimental: (A) Glucose transport was measured by determining [^3H]-2-deoxyglucose uptake stimulated by either insulin or α-PGG in 3T3-L1 cells in the presence or absence of HNMPA-(AM)3, an inhibitor of IR tyrosine kinase activity (24); wortmannin, an inhibitor of PI 3-kinase (25), or cytochalasin B, an inhibitor of GLUT4 (26), (n=4, mean±SD). (B) Cells were induced by 20 or 40 μM α-PGG or 100 nM insulin for 15 min. Cell lysates were separated by PAGE and analyzed for phosphorylation of IR (in CHO-IR cells) or Akt (in adipocytes) using antibodies specific to the target proteins. (C) Cells were treated with α-PGG and insulin in a fashion similar to (B) and assayed for their respective PI-3 kinase activity with a radioactive TLC method (27). (D) In similar experiments, intact cells were analyzed by confocal microscopy for translocation of GLUT4 using anti-GLUT4 antibodies.
# Protein phosphorylation/activation and GLUT4 translocation. To investigate signal transduction induced by α-PGG, proteins from 3T3-L1 adipocytes or CHO-IR cells (23), which were treated with α-PGG or insulin for 15 min, were isolated, separated by PAGE, blotted on nylon membranes, and analyzed by Western blotting with antibodies against either IR or Akt. […]
compound,measurement,setting,value
"O=C(OC[C@H]1O[C@H](OC(=O)c2cc(O)c(O)c(O)c2)[C@H](OC(=O)c2cc(O)c(O)c(O)c2)[C@@H](OC(=O)c2cc(O)c(O)c(O)c2)[C@@H]1OC(=O)c1cc(O)c(O)c(O)c1)c1cc(O)c(O)c(O)c1 [α-PGG, alpha 1,2,3,4,6-penta-O-galloyl-D-Glucopyranose]",induction of glucose transport,"[1]; 3T3-L1 adipocytes, [3H]-2-deoxy-D-glucose uptake, 15 min incubation",induced glucose transport in adipocytes in a dose-dependent manner
same,"glucose transport activity, more active than β-PGG","[1]; 15-30 μM concentration range, P<0.05 at 15 μM, P<0.01 at 30 μM",10-20%
same,EC50,"[1]; Mus musculus, 3T3-L1, estimated, printed 13 μM±2 μM, read-out: EC50 for glucose transport activity",13 µM
same,glucose transport induced by insulin on addition of α-PGG,[1]; insulin plus increasing amounts of α-PGG,reduced the glucose transport activity induced by insulin towards that of α-PGG
same,duration of blood glucose difference,[2]; oral 20 mg/kg,at least 5 hours
same,glucose level lower than control group,"[2]; oral 20 mg/kg, 4 to 6 hours after treatment",about 20%
same,blood glucose levels,[2]; single oral dose 20 mg/kg,significantly decreased
same,phosphorylation of the IR,[3],induces the phosphorylation of the IR
